Source: US20140271485A1, “USE OF COELENTERAZINE FOR IMAGING INSULIN-GENERATING BETA-CELLS” (The Board of Trustees of the Leland Stanford Junior …, priority 2013, published 2014)
“Also recorded” adds a separate entry of the source.

Experiments:
[1] = tested on: β-cell mass (pancreatic signal); experiment: Streptozotocin-induced diabetic mouse model, coelenterazine imaging of pancreas; type: in vivo, mice
Method: FIGS. 4A-4D illustrate the results from a streptozotocin-induced diabetic mouse model. Mice were treated with 200 mg/kg of streptozotocin (STZ) or PBS on day 0.
Top Panel: 3-days post-treatment, mice were administered 2 g/kg glucose and maintained on 10% sucrose water. Four h later, mice were intravenously injected with 1.4 mg/kg of coelenterazine and imaged. Bottom panel: Bioluminescence imaging of the excised pancreases collected from the mice depicted in top panel.
To conclusively determine the β-cell specificity of the signal, coelenterazine was used to image the pancreas of mice that received the β-cell toxic agent streptozotocin (STZ) versus a Phosphate-Buffered Saline (PBS) control in which the β-cells were functional.

[2] = tested on: rat insulinoma cell lines (RIN5F β-cell line); experiment: In vitro bioluminescence imaging of cell lines with coelenterazine (cell plate assay); type: cell-based
Method: FIG. 1A is a digital image illustrating a cell plate assay. 10^5 cells of each cell line were washed two times in serum-free RPMI and plated in a 96-well black plate. Coelenterazine was added to a final concentration of 10 μM and the plate imaged. RIN5F is a β-cell line and the remainder are control cell lines.
FIG. 1B is a graph illustrating the quantification of the bioluminescence signals of FIG. 1A. Error bars represent the standard error.
In vitro experiments for the imaging cell lines may be completed on the day of cell collection or following incubation. If imaging is performed following prolonged incubation combined with comparisons between dissimilar cell lines, it is important to consider the likelihood of there being a different division rate for each cell line.
For same-day imaging, the cells are collected by a method dictated by the particular cell line. Cells are washed twice in imaging buffer by repeated resuspension and centrifugation (a variety of buffers have proven effective, including: PBS, DPBS and Krebs). […] The desired concentration of cells is added to an imaging plate.
Coelenterazine is resuspended to a concentration of about 1-10 mg/mL in 100% ethanol and then diluted in imaging buffer to achieve the desired imaging concentration. […]
The coelenterazine is added to wells to be imaged and the signal detected using a bioluminescence detection system such as an IVIS. […]

[3] = tested on: pancreas; experiment: Ex vivo bioluminescence imaging of excised tissues with coelenterazine; design: species or system mice; details: ex vivo imaging of excised mouse tissues; significance P<0.05
Method: FIG. 2A is a digital image illustrating bioluminescence images of excised tissues from 3 mice in 1 mL PBS with 20 μg coelenterazine and imaged immediately.
Error bars represent the standard error and significance is defined as P<0.05.

[4] = tested on: β-cell mass (pancreatic signal); experiment: In vivo bioluminescence imaging of beta cell mass after intravenous coelenterazine; design: species or system mice
Method: FIG. 3A is a digital image, for the in vivo characterization of a coelenterazine (CTZ) pancreatic signal, showing the bioluminescence imaging of mice that were fasted for 6 h or received 2 g/kg intraperitoneal glucose and maintained on 10% sucrose water for 4 h. Mice then received 40 μg CTZ intravenously and were imaged immediately. FIG. 3C is a digital image, for the in vivo characterization of a coelenterazine (CTZ) pancreatic signal, showing the bioluminescence imaging of mice treated with glucose followed by administration of 0.56, 1.4, or 3.5 mg/kg CTZ intravenously. FIG. 3D is a graph illustrating the quantification of the signal detected in FIG. 3C at 1 min intervals following CTZ injection. […] A standardized anesthetic protocol with a defined anesthetic dose and induction period (if using inhalant anesthetics) is also required. Coelenterazine is prepared at a concentration of 10 mg/mL in 100% ethanol. The coelenterazine may be further diluted in a pharmaceutically acceptable carrier selected as suitable for injection into an animal subject for imaging. […] It is important to protect the imaging solution from light and that is prepared immediately prior to use. Following anesthetic induction, the imaging solution is intravenously administered at a dose of about 1-10 mg/kg and imaging is begun immediately in using an in vivo bioluminescence imaging system.

| Structure (SMILES) | blood glucose values, STZ versus PBS ([1]; 200 mg/kg STZ on day 0, measured on day 3) | pancreatic signal in STZ-treated mice versus PBS control ([1]; STZ 200 mg/kg day 0, imaging 3 days post-treatment, in vivo and ex vivo pancreas) | correlation between pancreatic signal and blood glucose ([1]; STZ and PBS mice) | coelenterazine-dependent bioluminescence signal of rat insulinoma cell lines relative to other cell lines ([2]; in the absence of any additional reagents) | time to stable maximum of signal following coelenterazine addition ([2]; in vitro, cells in imaging buffer) | bioluminescence signal of pancreas compared to other tissues [3] | time of maximum pancreatic signal intensity post-injection ([4]; intravenous, about 1-10 mg/kg) | signal of insulin-secreting β-cells compared to cells quiescent due to fasting ([4]; mice, glucose-treated vs fasted) | dose dependence of detectable signal intensity ([4]; mice, intravenous) | location of bioluminescence signal upon intravenous injection ([4]; mice, intravenous) |
| --- | --- | --- | --- | --- | --- | --- | --- | --- | --- | --- |
| CN(N=O)C(=O)N[C@H]1C(O)O[C@H](CO)[C@@H](O)[C@@H]1O (mixture of isomers) [streptozotocin] | difference (P=0.0265) | – | – | – | – | – | – | – | – | – |
| O=c1c(Cc2ccc(O)cc2)nc2c(Cc3ccccc3)[nH]c(-c3ccc(O)cc3)cn1-2 [coelenterazine, 6-(4-hydroxyphenyl)-2-[(4-hydroxyphenyl)methyl]-8-(phenylmethyl)-7H-imidazo[3,2-a]pyrazin-3-one] | – | significant difference (P=0.0000); also recorded: reduced in type I diabetic mice; also recorded: significant reduction in pancreatic signal in STZ-treated mice | correlation was significant (P=0.0317); also recorded: significant and inverse correlation | greater coelenterazine-dependent bioluminescence signal relative to other cell lines | 15 to 45 min | Significantly greater signals were detected from the pancreas compared to all other tissues; also recorded: significantly elevated pancreatic signal compared to other examined non-insulin-producing tissues | 2 to 5 min | insulin-secreting β-cells produced a greater signal | dose-dependent | pancreatic-specific bioluminescent signal; also recorded: a mid-upper abdominal bioluminescence signal was detected |
